Measured values: patent US20150315218A1, “SALTS OF PRODRUGS OF PIPERAZINE AND SUBSTITUTED PIPERIDINE ANTIVIRAL AGENTS” (Bristol-Myers Squibb Company, priority 2004, published 2015)
Read-outs that look alike come from different tables or passages of the source.

Tests used:
[1] = Single-dose toxicokinetic and tolerability study of prodrugs in dogs; type: in vivo, dog; details: for concentration at 24 h / AUC(0-inf) / half-life: dog, plasma; for concentration at 24 h: oral, read-out: C24h; for AUC(0-inf) / half-life: po; for half-life: read-out: T1/2 (converted)
Procedure: A multi-phase study was conducted to evaluate the tolerability of the prodrug, Iab (monolysine salt) at dosages of 24, 90, or 240 mg/kg (free acid, molar equivalent to 19, 71, or 190 mg/kg of parent IVa, respectively) and the toxicokinetics of lab and IVa (4). Iab was administered to two female dogs/group once daily either as an aqueous solution (24 or 90 mg/kg) or dry-filled capsules (24, 90 [once and twice daily] or 240 mg/kg). The endpoints were: clinical signs, body weight, food consumption, and plasma toxicokinetics of lab and IVa. In all cases, a 1-week washout period was used between doses for all phases of the study. […]
On day 1, Icb was administered to one dog/sex/group once daily in dry-filled capsules at the above dosages. A 1-week washout period was used between doses in the study. On day 8, Icb was administered to one dog/sex/group once daily as an aqueous solution at 25 mg/kg or twice daily in dry-filled capsules at 46 or 125 mg/kg BID.

[2] = IV and PO pharmacokinetic studies of prodrug salts (Iab, Ibb, Icb) in the rat, with historical parent data; type: in vivo, Sprague-Dawley rats; details: for AUC: read-out: AUCtot; for Cmax: read-out: Cmax; for half-life: read-out: T1/2 (converted)
Procedure: All blood samples (0.3 mL) were colleted in microtainers containing K2EDTA (Becton Dickinson, Franklin Lakes, N.J.) and placed on chipped ice. After centrifugation, plasma was separated and stored at −20° C. until analysis. The mono-lysine salt of Iab (Form 3, Lot 1) was used for the pharmacokinetic studies. The dosing solutions of Iab were prepared in either sterile water (for IV administration in dogs and monkeys) or distilled water (for all other dose administration).
Male Sprague-Dawley rats (300-350 g, Hilltop Lab Animals, Inc., Scottsdale, Pa.) with cannulas implanted in the jugular vein were used. The rats were fasted overnight in the PO pharmacokinetic studies. Blood samples were collected from the jugular vein.
In the IV study, Iab was delivered at 1.4 mg/kg (free acid, or 1.1 mg/kg of IVa equivalent) as a bolus over 0.5 min (n=3).
In the PO study, Iab was administered at 7.9 mg/kg (free acid, or 6.3 mg/kg of IVa equivalent) by oral gavage (n=3). The concentration of the dosing solution was 4.0 mg/mL, and the dosing volume was 2 mL/kg.
The pharmacokinetic parameters of Iab and IVa were calculated by Non-Compartmental Analysis using the […]™ software program (version 4.0.2, InnaPhase Co., Philadelphia, Pa.). The Cmax and Tmax values were recorded directly from experimental observations. The AUC0-n and AUCtot values were calculated using the mixed log-linear trapezoidal summations. The total body clearance (Cl), mean residence time (MRT), and the steady state volume of distribution (Vss) were also calculated after intravenous administration. The absolute oral bioavailability (expressed as %) was estimated by taking the ratio of dose-normalized AUC values after oral doses to those after intravenous doses.
All blood samples (0.3 mL) were colleted in microtainers containing K2EDTA (Becton Dickinson, Franklin Lakes, N.J.) and placed on chipped ice. After centrifugation, plasma was separated and stored at −20° C. until analysis. The mono-lysine salt of Ibb (Form 3) was used for the pharmacokinetic studies. The dosing solutions of Ibb were prepared in either sterile water (for IV administration in dogs and monkeys) or distilled water (for all other dose administration).
(§1) The Cmax and Tmax values were recorded directly from experimental observations. The AUC0-n and AUCtot values were calculated using the mixed log-linear trapezoidal summations. The total body clearance (Cl), mean residence time (MRT), and the steady state volume of distribution (Vss) were also calculated after intravenous administration. The absolute oral bioavailability (expressed as %) was estimated by taking the ratio of dose-normalized AUC values after oral doses to those after intravenous doses.
In the IV study, Icb was delivered at 1.4 mg/kg (free acid, or 1.1 mg/kg of IVe equivalent) as a bolus over 0.5 min (n=3).
In the PO study, Icb was administered at 6.9 mg/kg (free acid, or 5.6 mg/kg of IVe equivalent) by oral gavage (n=3).
as §1

[3] = Single-dose oral toxicokinetic study of prodrugs in rats; type: in vivo, rat; details: for concentration at 24 h / Cmax / AUC / half-life: male, Sprague Dawley, rat, plasma; for concentration at 24 h: oral, read-out: C24h; for Cmax / AUC / half-life: po; for AUC: read-out: AUC from zero to ∞; for half-life: read-out: T1/2 (converted)
Procedure: A 1-day oral toxicokinetic study in rats was conducted using the prodrug Iab (monolysine salt). Iab was administered at dosages of 16, 72, and 267 mg/kg (free acid) by oral gavage to three male rats/group using water as the vehicle (solution formulation). The dosages of prodrug free acid correspond to IVa (parent) molar equivalent dosages of 13, 57, and 211 mg/kg, respectively. The endpoint evaluated was plasma toxicokinetics of Iab and IVa in the individual rats.
A 1-day oral toxicokinetic study in rats was conducted by using the prodrug Ibb (monolysine salt). Ibb was administered at dosages of 19, 64, and 236 mg/kg (free acid) by oral gavage to three male rats/group using water as the vehicle (solution formulation).
A 1-day oral toxicokinetic study in rats was conducted using the prodrug Icb (disodium salt). Icb was administered at dosages of 5, 25, and 200 mg/kg (free acid) by oral gavage to three male rats/group using water as the vehicle (solution formulation).

[4] = female, 25 mg/kg, dog 2201F, day 1, Ibb 25 mg/kg QD dry-filled capsules
[5] = female, 25 mg/kg, dog 2201F, day 8, Ibb 25 mg/kg QD aqueous solution
[6] = female, 92 mg/kg, dog 3201F, day 1, Ibb 92 mg/kg QD dry-filled capsules
[7] = female, 250 mg/kg, dog 4201F, day 1, Ibb 250 mg/kg QD dry-filled capsules
[8] = male, 25 mg/kg, dog 2101M, day 1, Ibb 25 mg/kg QD dry-filled capsules
[9] = male, 25 mg/kg, dog 2101M, day 8, Ibb 25 mg/kg QD aqueous solution
[10] = male, 92 mg/kg, dog 3101M, day 1, Ibb 92 mg/kg QD dry-filled capsules
[11] = male, 250 mg/kg, dog 4101M, day 1, Ibb 250 mg/kg QD dry-filled capsules

O=C(C(=O)N1CCN(C(=O)c2ccccc2)CC1)c1c[nH]c2c(-n3ccnn3)ncc(F)c12 [IVb]
time post-second dose at which mean Cmax of parent was achieved ([1]; dogs, BID dosing of prodrug): 1 to 2 h | time post-dose at which mean Cmax of parent was achieved ([1]; dogs, once daily (QD) dosing of prodrug): 1 to 4 h | concentration at 24 h [1, 4]: 688 nM | concentration at 24 h [1, 5]: 107 nM | concentration at 24 h ([1]; female, 46 mg/kg, dog 3201F, day 8, Ibb 46 mg/kg BID dry-filled capsules): 307 nM | concentration at 24 h [1, 6]: 202 nM | concentration at 24 h ([1]; female, 125 mg/kg, dog 4201F, day 8, Ibb 125 mg/kg BID dry-filled capsules): 1960 nM | concentration at 24 h [1, 7]: 704 nM | AUC(0-inf) [1, 4]: 136 µM·h | half-life [1, 4]: 4.5 h | AUC(0-inf) [1, 5]: 139 µM·h | AUC(0-inf) ([1]; female, 46 mg/kg, dog 3201F, day 8, Ibb 46 mg/kg BID dry-filled capsules, emesis): 1050 µM·h | AUC(0-inf) ([1]; female, 92 mg/kg, dog 3201F, day 1, Ibb 92 mg/kg QD dry-filled capsules, emesis): 329 µM·h | half-life [1, 6]: 2.3 h | AUC(0-inf) ([1]; female, 125 mg/kg, dog 4201F, day 8, Ibb 125 mg/kg BID dry-filled capsules, emesis): 978 µM·h | AUC(0-inf) ([1]; female, 250 mg/kg, dog 4201F, day 1, Ibb 250 mg/kg QD dry-filled capsules, emesis): 745 µM·h | half-life [1, 7]: 3.2 h | concentration at 24 h [1, 8]: 8 nM | concentration at 24 h [1, 9]: 547 nM | concentration at 24 h ([1]; male, 46 mg/kg, dog 3101M, day 8, Ibb 46 mg/kg BID dry-filled capsules): 10600 nM | concentration at 24 h [1, 10]: 1900 nM | concentration at 24 h ([1]; male, 125 mg/kg, dog 4101M, day 8, Ibb 125 mg/kg BID dry-filled capsules): 54200 nM | concentration at 24 h [1, 11]: 2610 nM | AUC(0-inf) [1, 8]: 259 µM·h | half-life [1, 8]: 1.5 h | AUC(0-inf) [1, 9]: 324 µM·h | half-life [1, 9]: 3.3 h | AUC(0-inf) ([1]; male, 46 mg/kg, dog 3101M, day 8, Ibb 46 mg/kg BID dry-filled capsules, emesis): 478 µM·h | AUC(0-inf) ([1]; male, 92 mg/kg, dog 3101M, day 1, Ibb 92 mg/kg QD dry-filled capsules, emesis): 111 µM·h | half-life [1, 10]: 3.6 h | AUC(0-inf) ([1]; male, 125 mg/kg, dog 4101M, day 8, Ibb 125 mg/kg BID dry-filled capsules, emesis): 1390 µM·h | AUC(0-inf) ([1]; male, 250 mg/kg, dog 4101M, day 1, Ibb 250 mg/kg QD dry-filled capsules, emesis): 334 µM·h | half-life [1, 11]: 4.1 h | Vdss ([2]; IV IVb 1 mg/kg, historical IVb): 0.49 ± 0.26 L/kg | bioavailability ([2]; Sprague-Dawley (rats), breed of dogs and monkeys not stated, plasma, po, range over rats, dogs and monkeys, read-out: oral bioavailabilities of parent after administration of prodrug): 50 to 310% | bioavailability ([2]; Sprague-Dawley, plasma, historical parent, PO 5 mg/kg, read-out: Bioavailability (%)): 60% | Tmax ([2]; Sprague-Dawley, plasma, historical parent, PO 5 mg/kg, read-out: Tmax (hr), PO): 4.7 h | AUC ([2]; in vivo, po, 5 mg/kg): 86 ± 33 µM·h | Cmax ([2]; in vivo, po, 5 mg/kg): 9500 ± 2800 nM | half-life ([2]; male, Sprague-Dawley, plasma, iv, […]): 3 ± 1.8 h | bioavailability ([2]; male, Sprague-Dawley, plasma, oral prodrug, calculated from historical IV data of parent, read-out: Bioavailability (%) of parent from prodrug): 50% | Tmax ([2]; male, Sprague-Dawley, plasma, parent after oral prodrug (~5-6 mg/kg parent equivalent), read-out: Tmax (hr), PO): 0.83 h | Cmax ([2]; male, Sprague-Dawley, plasma, po, 6.6 mg/kg): 19000 ± 1800 nM | Tmax ([2]; male, Sprague-Dawley, plasma, po, 6.6 mg/kg, read-out: Tmax): 0.83 ± 0.14 h | AUC ([2]; plasma, iv, 1 mg/kg): 24 ± 3.2 µM·h | MRT ([2]; plasma, iv, 1 mg/kg, read-out: MRT): 5.6 ± 3.6 h | half-life ([2]; plasma, iv, 1 mg/kg): 5.9 ± 4.9 h | concentration at 24 h ([2]; plasma, oral, 5 mg/kg, read-out: C-24 hr): 160 nM | bioavailability ([2]; plasma, po, 5 mg/kg, read-out: Bioavailability): 60% | half-life ([2]; plasma, po, 5 mg/kg): 3.7 ± 0.86 h | Tmax ([2]; plasma, po, 5 mg/kg, read-out: Tmax): 4.7 ± 1.2 h | concentration at 24 h ([3]; 19 mg/kg (free acid)): 48 nM | concentration at 24 h ([3]; 64 mg/kg (free acid)): 290 nM | concentration at 24 h ([3]; 236 mg/kg (free acid)): 29000 nM | Cmax ([3]; 19 mg/kg): 58000 nM | AUC ([3]; 19 mg/kg): 283 µM·h | half-life ([3]; 19 mg/kg): 2.1 h | Cmax ([3]; 64 mg/kg): 135000 nM | AUC ([3]; 64 mg/kg): 997 µM·h | half-life ([3]; 64 mg/kg): 2.1 h | Cmax ([3]; 236 mg/kg): 290000 nM | AUC ([3]; 236 mg/kg): 3700 µM·h | half-life ([3]; 236 mg/kg): 5.8 h | time post-dose at which mean maximum plasma concentration (Cmax) was achieved ([3]; rats, single oral dose of prodrug): 1 to 3 h
